From patent US20180022780A1, “STABILIZATION ADRENOMEDULLIN DERIVATIVES AND USE THEREOF” (priority 2014, published 2018)
Numbered stars: 1 amine (or outer) side, 2 acyl side, 3 side chain; on linkers, the order of the positions; unused ones are H or OH. Bridge positions count the residues as written; N and C are the ends. Square brackets hold non-standard residues; d marks the D form. Peptide text beside a SMILES is read from it. * marks the point of attachment. Abu(4-yl) = O=C([C@H](CC[*:3])N[*:1])[*:2]; Palmitoyl = CCCCCCCCCCCCCCCC(=O)*; Orn = NCCC[C@H](N)C(=O)O; Dab = NCC[C@H](N)C(=O)O

Target: T1, CLR fused to EYFP and RAMP2 fused to ECFP (Homo sapiens, UniProt O60895+Q16602)
T1 construct: EYFP; ECFP; expressed in transfected cells; host or cells: HEK-293 cells, transient co-transfection
Experiment: cAMP assay (CRE luciferase reporter, HEK-293 cells transiently co-transfected with CLR and RAMP2)
Format: cell-based
Conditions: Table 2, cAMP assay; HEK-293, CLR/RAMP2, CRE luciferase, 3 h stimulation, normalized to [G^14]ADM(14-52)
Description: HEK-293 cells (human embryonic kidney cells) were cultured in Ham's F-12/DMEM (1/1; v/v) containing 15% FCS under humidified atmosphere at 37° C. and 5% CO2 in 75 cm^2 cell culture flasks.
Cells were cultured in 75 cm^2 flasks to 70-80% confluency. 45 μl Metafectene® Pro was diluted in 900 μl Ham's F-12/DMEM (1/1; v/v) and incubated for 20 min at room temperature. 9000 ng plasmid containing DNA of CLR fused to EYFP and 3000 ng plasmid containing DNA of RAMP2 fused to ECFP were dissolved in 900 μl Ham's F-12/DMEM (1/1; v/v). The plasmid solution was mixed with the Metafectene® Pro solution and incubated for 25 min at room temperature. Medium was removed from the cells and replaced by 6 ml Ham's F-12/DMEM (1/1; v/v) containing 15% FCS. After addition of transfection solution the cells were incubated for 3 h under humidified atmosphere at 37° C. and 5% CO2.
For the second transfection 45 μl Metafectene® Pro was diluted in 900 μl Ham's F-12/DMEM (1/1; v/v) and incubated for 20 min at room temperature. 12000 ng of pGL4.29[luc2P/CRE/Hygro] plasmid containing DNA for the luciferase reporter gene luc2P (with CRE promotor region) were dissolved in 900 μl Ham's F-12/DMEM (1/1; v/v). The plasmid solution was mixed with the Metafectene® Pro solution and incubated for 25 min at room temperature. Medium was removed from the cells and replaced by 6 ml Ham's F-12/DMEM (1/1; v/v) containing 15% FCS. After addition of transfection solution the cells were incubated under humidified atmosphere at 37° C. and 5% CO2 over night.
For the coating of 96-well-plates 50 μl of a Poly-D-Lysine solution (1 ml stock solution of Poly-D-Lysin-hydrobromid/10 ml DPBS) were pipetted in each well and incubated for 40 min. After removal of the Poly-D-Lysine each well was washed with 50 μl DPBS. Transiently transfected cells were detached from the cell culture flask by removal of the medium, twofold washing with 5 m1 DPBS and resuspending in 13 ml Ham's F-12/DMEM (1/1; v/v) containing 15% FCS. 90000 to 120000 cells in 150 μl Ham's F-12/DMEM (1/1; v/v) containing 15% FCS were seeded per well and the plates were incubated under humidified atmosphere at 37° C. and 5% CO2 over night.
For each ligand a serial dilution giving eight different concentrations was prepared using Ham's F-12/DMEM (1/1; v/v). Before stimulation the medium on the cells was replaced by 100 μl Ham's F-12/DMEM (1/1; v/v) and the plates were incubated for 1 h under humidified atmosphere at 37° C. and 5% CO2. For stimulation the medium was removed again and the cells were incubated for 3 h in 80 μl of ligand-solution under humidified atmosphere at 37° C. and 5% CO2. In addition 80 μl of a 5 μM forskolin solution (in Ham's F-12/DMEM (1/1; v/v)) was used as a positive control and 80 μl of Ham's F-12/DMEM (1/1; v/v) as a negative control. Each concentration and the controls were tested as triplicates.
After 3 h of stimulation, the solutions were removed and the cells were washed with 50 μl of Ham's F-12/DMEM (1/1; v/v) per well. After 10 min incubation in 30 μl of Ham's F-12/DMEM (1/1; v/v) at room temperature, 30 μl of luciferase-solution (ONE-Glo™ Luciferase Assay System) was added and the luminescence was directly measured using an Infinite M200 (Tecan).
Data analysis of the luminescence measurement was carried out with GraphPad Prism 5. Therefore the measured luminescence values of each plate were first corrected on the base of the respective average of forskolin stimulation. Afterwards they were normalized to [G^14]ADM(14-52) which was used as standard peptide in every assay. After correction and normalization data was analysed using non-linear regression giving dose-response curves for each tested ligand.

T1 sequence (Q16602 23-461): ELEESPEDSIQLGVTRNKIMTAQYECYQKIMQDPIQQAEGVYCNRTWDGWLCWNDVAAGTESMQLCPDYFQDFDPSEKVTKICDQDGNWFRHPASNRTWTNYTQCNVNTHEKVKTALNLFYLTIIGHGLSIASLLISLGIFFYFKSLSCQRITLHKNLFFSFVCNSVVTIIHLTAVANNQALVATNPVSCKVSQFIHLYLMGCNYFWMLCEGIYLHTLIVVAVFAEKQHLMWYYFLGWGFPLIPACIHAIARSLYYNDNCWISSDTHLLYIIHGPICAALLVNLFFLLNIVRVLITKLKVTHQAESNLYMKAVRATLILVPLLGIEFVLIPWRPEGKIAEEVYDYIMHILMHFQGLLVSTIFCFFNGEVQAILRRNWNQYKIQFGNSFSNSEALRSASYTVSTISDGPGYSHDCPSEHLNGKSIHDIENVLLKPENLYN
T1 sequence (O60895 43-175): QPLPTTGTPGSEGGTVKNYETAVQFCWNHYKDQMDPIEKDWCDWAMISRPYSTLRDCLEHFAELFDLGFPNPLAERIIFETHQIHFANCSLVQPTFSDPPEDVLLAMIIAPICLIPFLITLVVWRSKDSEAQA

| EC50 [nM] | Structure (SMILES) |
| --- | --- |
| 3.3 | CC[C@H](C)[C@H](NC(=O)[C@H](CCC(N)=O)NC(=O)[C@H](Cc1c[nH]cn1)NC(=O)[C@H](C)NC(=O)[C@H](CC(C)C)NC(=O)[C@H](CCCCN)NC(=O)[C@H](CCC(N)=O)NC(=O)[C@@H](NC(=O)[C@@H](NC(=O)[C@@H]1CCSC[C@H](NC(=O)CNC(=O)CN)C(=O)N[C@@H](CCCNC(=N)N)C(=O)N[C@@H](Cc2ccccc2)C(=O)NCC(=O)N[C@@H]([C@@H](C)O)C(=O)N1)[C@@H](C)O)C(C)C)C(=O)N[C@@H](Cc1ccc(O)cc1)C(=O)N[C@@H](CCC(N)=O)C(=O)N[C@@H](Cc1ccccc1)C(=O)N[C@H](C(=O)N[C@@H](CC(=O)O)C(=O)N[C@@H](CCCCN)C(=O)N[C@@H](CC(=O)O)C(=O)N[C@@H](CCCCN)C(=O)N[C@@H](CC(=O)O)C(=O)N[C@@H](CC(N)=O)C(=O)N[C@H](C(=O)N[C@@H](C)C(=O)N1CCC[C@H]1C(=O)N[C@@H](CCCNC(=N)N)C(=O)N[C@@H](CO)C(=O)N[C@@H](CCCCN)C(=O)N[C@H](C(=O)N[C@@H](CO)C(=O)N1CCC[C@H]1C(=O)N[C@@H](CCC(N)=O)C(=O)NCC(=O)N[C@@H](Cc1ccc(O)cc1)C(N)=O)[C@@H](C)CC)C(C)C)[C@@H](C)O [Example 15, ((4S,7S,13S,16S,19R)-19-(2-(2-aminoacetamido)acetamido)-13-benzyl-16-(3-guanidinopropyl)-7-((R)-1-hydroxyethyl)-6,9,12,15,18-pentaoxo-1-thia-5,8,11,14,17-pentaazacycloicosane-4-carbonyl)-L-threonyl-ADM(22-52)] (H-GGCRFGT[Abu(4-yl)]TVQKLAHQIYQFTDKDKDNVAPRSKISPQGY-NH2; thioether 3-8) |
| 29 | CCCCCCCCCCCCCCCC(=O)NCCCC[C@H](N)C(=O)NCC(=O)N[C@H]1CCC(=O)NCCCC[C@@H](C(=O)N[C@H](C(=O)N[C@H](C(=O)N[C@@H](CCC(N)=O)C(=O)N[C@@H](CCCCN)C(=O)N[C@@H](CC(C)C)C(=O)N[C@@H](C)C(=O)N[C@@H](Cc2c[nH]cn2)C(=O)N[C@@H](CCC(N)=O)C(=O)N[C@H](C(=O)N[C@@H](Cc2ccc(O)cc2)C(=O)N[C@@H](CCC(N)=O)C(=O)N[C@@H](Cc2ccccc2)C(=O)N[C@H](C(=O)N[C@@H](CC(=O)O)C(=O)N[C@@H](CCCCN)C(=O)N[C@@H](CC(=O)O)C(=O)N[C@@H](CCCCN)C(=O)N[C@@H](CC(=O)O)C(=O)N[C@@H](CC(N)=O)C(=O)N[C@H](C(=O)N[C@@H](C)C(=O)N2CCC[C@H]2C(=O)N[C@@H](CCCNC(=N)N)C(=O)N[C@@H](CO)C(=O)N[C@@H](CCCCN)C(=O)N[C@H](C(=O)N[C@@H](CO)C(=O)N2CCC[C@H]2C(=O)N[C@@H](CCC(N)=O)C(=O)NCC(=O)N[C@@H](Cc2ccc(O)cc2)C(N)=O)[C@@H](C)CC)C(C)C)[C@@H](C)O)[C@@H](C)CC)C(C)C)[C@@H](C)O)NC(=O)[C@H]([C@@H](C)O)NC(=O)CNC(=O)[C@H](Cc2ccccc2)NC(=O)[C@H](CCCNC(=N)N)NC1=O [Example 12, ((2S,5S,11S,14S,23S)-23-(2-((S)-2-amino-6-palmitamidohexanamido)acetamido)-5-benzyl-2-(3-guanidinopropyl)-11-((R)-1-hydroxyethyl)-3,6,9,12,20,24-hexaoxo-1,4,7,10,13,19-hexaazacyclotetracosane-14-carbonyl)-L-threonyl-ADM(22-52)] (H-K(Palmitoyl)GERFGTKTVQKLAHQIYQFTDKDKDNVAPRSKISPQGY-NH2; lactam 3-8) |
| 84 | CC[C@H](C)[C@H](NC(=O)[C@H](CCC(N)=O)NC(=O)[C@H](Cc1c[nH]cn1)NC(=O)[C@H](C)NC(=O)[C@H](CC(C)C)NC(=O)[C@H](CCCCN)NC(=O)[C@H](CCC(N)=O)NC(=O)[C@@H](NC(=O)[C@@H](NC(=O)[C@@H]1CCC(=O)NCC[C@H](NC(=O)CNC(=O)CN)C(=O)N[C@@H](CCCNC(=N)N)C(=O)N[C@@H](Cc2ccccc2)C(=O)NCC(=O)N[C@@H]([C@@H](C)O)C(=O)N1)[C@@H](C)O)C(C)C)C(=O)N[C@@H](Cc1ccc(O)cc1)C(=O)N[C@@H](CCC(N)=O)C(=O)N[C@@H](Cc1ccccc1)C(=O)N[C@H](C(=O)N[C@@H](CC(=O)O)C(=O)N[C@@H](CCCCN)C(=O)N[C@@H](CC(=O)O)C(=O)N[C@@H](CCCCN)C(=O)N[C@@H](CC(=O)O)C(=O)N[C@@H](CC(N)=O)C(=O)N[C@H](C(=O)N[C@@H](C)C(=O)N1CCC[C@H]1C(=O)N[C@@H](CCCNC(=N)N)C(=O)N[C@@H](CO)C(=O)N[C@@H](CCCCN)C(=O)N[C@H](C(=O)N[C@@H](CO)C(=O)N1CCC[C@H]1C(=O)N[C@@H](CCC(N)=O)C(=O)NCC(=O)N[C@@H](Cc1ccc(O)cc1)C(N)=O)[C@@H](C)CC)C(C)C)[C@@H](C)O [Example 11, ((2S,5S,11S,14S,21S)-21-(2-(2-aminoacetamido)acetamido)-5-benzyl-2-(3-guanidinopropyl)-11-((R)-1-hydroxyethyl)-3,6,9,12,17,22-hexaoxo-1,4,7,10,13,18-hexaazacyclodocosane-14-carbonyl)-L-threonyl-ADM(22-52)] (H-GG[Dab]RFGTETVQKLAHQIYQFTDKDKDNVAPRSKISPQGY-NH2; lactam 3-8) |
| 20 | CC[C@H](C)[C@H](NC(=O)[C@H](CCC(N)=O)NC(=O)[C@H](Cc1c[nH]cn1)NC(=O)[C@H](C)NC(=O)[C@H](CC(C)C)NC(=O)[C@H](CCCCN)NC(=O)[C@H](CCC(N)=O)NC(=O)[C@@H](NC(=O)[C@@H](NC(=O)[C@@H]1CCCNC(=O)C[C@H](NC(=O)CNC(=O)CN)C(=O)N[C@@H](CCCNC(=N)N)C(=O)N[C@@H](Cc2ccccc2)C(=O)NCC(=O)N[C@@H]([C@@H](C)O)C(=O)N1)[C@@H](C)O)C(C)C)C(=O)N[C@@H](Cc1ccc(O)cc1)C(=O)N[C@@H](CCC(N)=O)C(=O)N[C@@H](Cc1ccccc1)C(=O)N[C@H](C(=O)N[C@@H](CC(=O)O)C(=O)N[C@@H](CCCCN)C(=O)N[C@@H](CC(=O)O)C(=O)N[C@@H](CCCCN)C(=O)N[C@@H](CC(=O)O)C(=O)N[C@@H](CC(N)=O)C(=O)N[C@H](C(=O)N[C@@H](C)C(=O)N1CCC[C@H]1C(=O)N[C@@H](CCCNC(=N)N)C(=O)N[C@@H](CO)C(=O)N[C@@H](CCCCN)C(=O)N[C@H](C(=O)N[C@@H](CO)C(=O)N1CCC[C@H]1C(=O)N[C@@H](CCC(N)=O)C(=O)NCC(=O)N[C@@H](Cc1ccc(O)cc1)C(N)=O)[C@@H](C)CC)C(C)C)[C@@H](C)O [Example 8, ((2S,5S,11S,14S,21S)-21-(2-(2-aminoacetamido)acetamido)-5-benzyl-2-(3-guanidinopropyl)-11-((R)-1-hydroxyethyl)-3,6,9,12,19,22-hexaoxo-1,4,7,10,13,18-hexaazacyclodocosane-14-carbonyl)-L-threonyl-ADM(22-52)] (H-GGDRFGT[Orn]TVQKLAHQIYQFTDKDKDNVAPRSKISPQGY-NH2; lactam 3-8) |
